# Laboratory results as given in patent US20160130226A1, “SPIRO-SUBSTITUTED OXINDOLE DERIVATIVES HAVING AMPK ACTIVITY” (BOEHRINGER INGELHEIM INTERNATIONAL GMBH, priority 2013, published 2016).
# Biological target: T1, AMPK beta 1 (Homo sapiens, UniProt Q13131+Q9Y478)
# T1 construct: in-cell-ELISA for phospho-ACC (Acetyl-CoA carboxylase 1) in HepG2 cells (liver); endogenous in cells; host or cells: HepG2 (assignment to the beta 1 column inferred)
# Assay: in-cell-ELISA for phospho-ACC: activation of AMPK, beta 1 (HepG2 cells / C2C12 myotubes)
# Type: cell-based
# Details: 2 h, percentage activation over vehicle control; for activation at 10 µM / activation at 3 µM / activation at 1 µM: read-out: Percentage activation of beta 1 at given concentration
# Experimental: Activation of AMPK by various compounds were measured using in-cell-ELISA for phospho-ACC (Acetyl-CoA carboxylase 1) in HepG2 cells (liver) and fully differentiated myotubes (C2C12 cells) grown in 96 well plate. Cells were treated with 1 μM, 3 μM or 10 μM of the molecule (Example) for 2 h in serum free DMEM media. After methanol fixation, cells were blocked with BSA followed by addition of anti-phospho ACC antibody (Cell Signaling) and HRP conjugated secondary antibody. Absorbance values taken at 450 nm were normalized with total DNA (Hoechest stain). Results were expressed as percentage activation over vehicle control.
# Percentage activation at compound (Example) concentration of 1, 3 or 10 μM for compounds according to the invention are shown in the following table. The number of the compound corresponds to the number of the Example (Ex) in the experimental section.
# T1 sequence (Q9Y478 2-270 limits assumed): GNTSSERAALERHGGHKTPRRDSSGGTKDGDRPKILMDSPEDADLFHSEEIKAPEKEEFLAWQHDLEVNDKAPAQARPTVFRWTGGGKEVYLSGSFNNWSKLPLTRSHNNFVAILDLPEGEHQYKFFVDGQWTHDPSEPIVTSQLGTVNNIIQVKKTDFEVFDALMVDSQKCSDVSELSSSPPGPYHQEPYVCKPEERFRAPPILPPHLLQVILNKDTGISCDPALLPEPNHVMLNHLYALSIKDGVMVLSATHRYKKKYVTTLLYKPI
# T1 sequence (Q13131 whole entry): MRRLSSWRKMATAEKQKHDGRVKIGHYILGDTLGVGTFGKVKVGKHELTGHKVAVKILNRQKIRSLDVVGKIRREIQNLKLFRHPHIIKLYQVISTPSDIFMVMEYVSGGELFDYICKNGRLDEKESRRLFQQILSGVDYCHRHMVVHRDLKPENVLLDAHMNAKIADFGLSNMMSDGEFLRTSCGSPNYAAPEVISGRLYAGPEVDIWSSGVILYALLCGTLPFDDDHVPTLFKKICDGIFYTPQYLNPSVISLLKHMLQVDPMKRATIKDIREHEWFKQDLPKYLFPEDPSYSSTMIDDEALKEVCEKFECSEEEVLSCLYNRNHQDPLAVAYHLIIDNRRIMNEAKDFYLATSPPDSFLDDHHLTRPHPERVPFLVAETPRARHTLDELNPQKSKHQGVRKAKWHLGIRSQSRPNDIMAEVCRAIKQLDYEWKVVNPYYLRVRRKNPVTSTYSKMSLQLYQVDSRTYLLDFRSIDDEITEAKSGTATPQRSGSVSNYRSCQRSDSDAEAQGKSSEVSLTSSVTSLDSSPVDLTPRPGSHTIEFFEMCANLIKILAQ
# T1 sequence (P54619 whole entry partner): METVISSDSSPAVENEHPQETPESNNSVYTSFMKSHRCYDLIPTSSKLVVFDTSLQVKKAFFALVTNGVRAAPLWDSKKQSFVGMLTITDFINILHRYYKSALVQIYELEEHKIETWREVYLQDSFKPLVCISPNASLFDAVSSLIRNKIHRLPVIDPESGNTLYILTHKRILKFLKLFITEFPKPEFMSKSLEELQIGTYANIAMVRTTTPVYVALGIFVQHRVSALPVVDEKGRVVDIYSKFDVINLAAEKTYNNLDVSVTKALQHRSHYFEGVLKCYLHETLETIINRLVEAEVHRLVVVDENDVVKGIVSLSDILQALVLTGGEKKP
SMILES,activation at 10 µM (10 μM) [%],activation at 3 µM [%],other results
Cc1ccc(C2CC23C(=O)Nc2cc(F)c(-c4ccc(-c5ccc(-n6cncn6)cc5)cc4)cc23)cc1C(=O)O (centres unmarked) [Example 147],–,–,Percentage activation of beta 1 at given concentration (1 μM): 32% at 1 μM
CCn1cc(C2CC23C(=O)Nc2cc(Cl)c(-c4ccc(-c5ccccc5O)cc4)cc23)cc1C(=O)O (centres unmarked) [Example 39],28,–,–
Cc1ccc(C2CC23C(=O)N(C)c2cc(Cl)c(-c4ccc(-c5ccncc5O)cc4)cc23)cc1C(=O)O (centres unmarked) [Example 41],29,–,–
O=C(O)c1ccc(C2CC23C(=O)Nc2cc(Cl)c(-c4ccc(-c5ccccc5O)cc4)cc23)cc1 (centres unmarked) [Example 32],–,39,–
Cc1ccc(C2CC23C(=O)Nc2cc(Cl)c(-c4ccc(-c5ccccc5S(C)(=O)=O)cc4)cc23)cc1C(=O)O (centres unmarked) [Example 87],47,–,–
O=C1Nc2cc(F)c(-c3ccc(-c4ccccc4O)cc3)cc2C12CC2c1cccc(-c2nnn[nH]2)c1 (centres unmarked) [Example 179],–,23,–
Cc1ccc(C2CC23C(=O)Nc2cc(Cl)c(-c4ccc(-c5ccncc5)cc4)cc23)cc1CC(=O)O (centres unmarked) [Example 64],–,81,–
Cc1ccc(C2CC23C(=O)Nc2cc(Cl)c(-c4ccc(-c5ccccc5O)cc4)cc23)cc1C(=O)Nc1nnn[nH]1 (centres unmarked) [Example 183],–,19,–
O=C(O)Cc1cccc(C2CC23C(=O)Nc2cc(Cl)c(-c4ccc(-c5ccccc5O)cn4)cc23)c1 (centres unmarked) [Example 17],–,–,Percentage activation of beta 1 at given concentration (10 μM): 88% at 10 μM
Cc1ccc(C2CC23C(=O)Nc2cc(Cl)c(-c4ccc(-c5ccccc5O)cc4)cc23)cc1C(=O)O (centres unmarked) [Example 28],–,104,–
Cn1cc(C2CC23C(=O)Nc2cc(F)c(-c4ccc(-c5ccccc5O)cc4)cc23)cc1C(=O)O (centres unmarked) [Example 14],–,48,–
Cc1ccc(C2CC23C(=O)Nc2cc(Cl)c(-c4ccc(-c5ccccc5O)cn4)cc23)cc1CC(=O)O (centres unmarked) [Example 19],–,43,–
CC(C)c1ccc(C2CC23C(=O)Nc2cc(Cl)c(-c4ccc(-c5ccncc5O)cc4)cc23)cc1C(=O)O (centres unmarked) [Example 22],271,–,–
COc1ccc(C2CC23C(=O)Nc2cc(F)c(-c4ccc(-c5ccccc5O)cc4)cc23)cc1C(=O)O (centres unmarked) [Example 11],–,64,–
COc1ccc(C2CC23C(=O)Nc2cc(F)c(-c4ccc(-c5ccc(-n6cccn6)cc5)cc4)cc23)cc1C(=O)O (centres unmarked) [Example 164],–,–,activation at 1 µM (1 μM): 19%
Cc1ccc(C2CC23C(=O)Nc2cc(F)c(-c4ccc(-c5ccccc5O)cn4)cc23)cc1C(=O)O (centres unmarked) [Example 9],23,–,–
Cc1ccc(C2CC23C(=O)N(C)c2cc(Cl)c(-c4ccc(-c5ccncc5)cc4)cc23)cc1C(=O)O (centres unmarked) [Example 100],–,134,–
Cn1cc(C2CC23C(=O)Nc2cc(F)c(-c4ccc(-c5ccccc5O)cc4)cc23)cc1C(=O)O (centres unmarked) [Example 13],11,–,–
Cc1ccc(C2CC23C(=O)Nc2cc(Cl)c(-c4ccc(-c5ccc(-n6cncn6)cc5)c(F)c4)cc23)cc1C(=O)O (centres unmarked) [Example 151],–,–,Percentage activation of beta 1 at given concentration (1 μM): 25% at 1 μM
Cc1ccc(C2CC23C(=O)Nc2cc(F)c(-c4ccc(-c5ccc(-n6cccn6)cc5)cc4)cc23)cc1C(=O)O (centres unmarked) [Example 141],–,104,–
Cc1ccc(C2CC23C(=O)Nc2cc(Cl)c(-c4ccc(-c5ccncc5)cc4)cc23)cc1CC(=O)O (centres unmarked) [Example 63],–,–,activation at 1 µM (1 μM): 42%
Cc1ccc(C2CC23C(=O)Nc2cc(Cl)c(S(=O)(=O)NC4CC4)cc23)cc1C(=O)O (centres unmarked) [Example 90],25,–,–
O=C(O)Cc1cccc(C2CC23C(=O)Nc2cc(Cl)c(-c4ccc(-c5ccc(-n6cncn6)cc5)cc4)cc23)c1 (centres unmarked) [Example 129],–,15,–
Cc1ccc(C2CC23C(=O)Nc2c3cc(-c3ccc(-c4ccc(-n5cccn5)cc4)cc3)c(Cl)c2Cl)cc1C(=O)O (centres unmarked) [Example 153],–,–,activation at 1 µM (1 μM): 10%
Cc1ccc(C2CC23C(=O)Nc2cc(Cl)c(-c4ccc(-c5ccccc5C(C)(C)O)cc4)cc23)cc1C(=O)O (centres unmarked) [Example 53],–,47,–
CC(C)(C(=O)O)c1ccc(C2CC23C(=O)Nc2cc(F)c(-c4ccc(-c5ccc(-n6cncn6)cc5)cc4)cc23)cc1 (centres unmarked) [Example 163],–,–,Percentage activation of beta 1 at given concentration (1 μM): 131% at 1 μM
O=C(O)Cc1cccc(C2CC23C(=O)Nc2cc(Cl)c(-c4ccc(-c5ccccc5O)cc4)cc23)c1 (centres unmarked) [Example 26],–,73,–
Cc1ccc(C2CC23C(=O)Nc2cc(Cl)c(-c4ccc(N5CCOCC5)cc4)cc23)cc1C(=O)O (centres unmarked) [Example 66],36,–,–
CN(C)c1cc(-c2ccc(-c3cc4c(cc3Cl)NC(=O)C43CC3c3cccc(CC(=O)O)c3)cc2)ccn1 (centres unmarked) [Example 88],132,–,–
